Laboratory results reported in US20250206732A1, “COMPOUNDS AND METHODS FOR THE TARGETED DEGRADATION OF KRAS” (Arvinas Operations, Inc., priority 2022, published 2025).

Target: T1, AsPC-1 HiBiT-KRASG12D (Homo sapiens, UniProt P01116, G12D)
T1 construct: insert the HiBiT tag onto the N-terminus of one or more of the endogenous KRAS alleles; endogenous in cells; host or cells: AsPC-1 (ATCC CRL-1682), CRISPR-Cas9 knock-in clone, one tagged allele
Experiment: HiBiT degradation assay (G12D), AsPC-1 HiBiT-KRASG12D cells
Format: cell-based
Settings: 24 hours treatment; for Dmax: ASPC1, AsPC-1 HiBiT-KRASG12D cells, maximum degradation observed; for DC50: AsPC-1 HiBiT-KRASG12D cells, HiBiT luminescence
Method in brief: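 Endogenous KRASG12D levels were measured via an N-terminal HiBiT tag knocked into AsPC-1 cells. Cells received compound titrations for 24 hours, and HiBiT luminescence was detected after a 45-minute lytic reagent incubation at room temperature.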

T1 sequence (P01116 1-188 isoform P01116-2 G12D): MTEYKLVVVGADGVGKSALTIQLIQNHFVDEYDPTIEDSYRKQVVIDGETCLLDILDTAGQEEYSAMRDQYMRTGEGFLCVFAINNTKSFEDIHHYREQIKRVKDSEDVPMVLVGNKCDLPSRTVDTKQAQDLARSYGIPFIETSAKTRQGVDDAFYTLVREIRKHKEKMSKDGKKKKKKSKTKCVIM

For `CCc1cccc2cc(O)cc(-c3ncc4c(N5CC6CCC(C5)N6)nc(OC[C@@]56CCCN5[C@H](COC(=O)N(C)Cc5cc([C@@H](C(=O)N7C[C@H](O)C[C@H]7C(=O)N[C@@H](C)c7ccc(-c8scnc8C)cc7)C(C)C)on5)CC6)nc4c3F)c12` [Compound 91, [(3S,7aS)-7a-{[(4-{3,8-diazabicyclo[3.2.1]octan-3-yl}-7-(8-ethyl-3-hydroxynaphthalen-1-yl)-8-fluoropyrido[4,3-d]pyrimidin-2-yl)oxy]methyl}-hexahydro-1H-pyrrolizin-3-yl]methyl N-({5-[(2S)-1-[(2S,4R)-4-hydroxy-2-{[(1S)-1-[4-(4-methyl-1,3-thiazol-5-yl)phenyl]ethyl]carbamoyl}pyrrolidin-1-yl]-3-methyl-1-oxobutan-2-yl]-1,2-oxazol-3-yl}methyl)-N-methylcarbamate], the Dmax was 20 to 60% and the DC50 was 1 to 3 µM.

In the case of `CCc1cccc2cc(O)cc(-c3ncc4c(N5CCCCCC5)nc(OC[C@@]56CCCN5[C@H](COc5cc([C@H](C(=O)N7C[C@H](O)C[C@H]7C(=O)N[C@@H](C)c7ccc(-c8scnc8C)cc7)C(C)C)on5)CC6)nc4c3F)c12` (single isomer, unassigned) [Compound 338], the Dmax is reported as 80 to 100% and the DC50 is reported as less than 0.6 µM.

In the case of `CCc1cccc2cc(O)cc(-c3ncc4c(N5CC6CCC(C5)N6)nc(OCCN5CCC(F)(CN6CCN(c7cc([C@H](C(=O)N8C[C@H](O)C[C@H]8C(=O)N[C@@H](C)c8ccc(-c9scnc9C)cc8)C(C)C)on7)C[C@H]6C)CC5)nc4c3F)c12` [Compound 200, (2S,4R)-1-[(2R)-2-{3-[(3R)-4-[(1-{2-[(4-{3,8-diazabicyclo[3.2.1]octan-3-yl}-7-(8-ethyl-3-hydroxynaphthalen-1-yl)-8-fluoropyrido[4,3-d]pyrimidin-2-yl)oxy]ethyl}-4-fluoropiperidin-4-yl)methyl]-3-methylpiperazin-1-yl]-1,2-oxazol-5-yl}-3-methylbutanoyl]-4-hydroxy-N-[(1S)-1-[4-(4-methyl-1,3-thiazol-5-yl)phenyl]ethyl]pyrrolidine-2-carboxamide], the Dmax is reported as 60 to 80% and the DC50 is reported as less than 0.6 µM.

`CCc1cccc2cc(O)cc(-c3ncc4c(N5CC6CCC(C5)N6)nc(OCCN5CCC(OC6CN(c7cc([C@@H](C(=O)N8C[C@H](O)C[C@H]8C(=O)N[C@@H](C)c8ccc(-c9scnc9C)cc8)C(C)C)on7)C6)CC5)nc4c3F)c12` [Compound 216, (2S,4R)-1-[(2S)-2-(3-{3-[(1-{2-[(4-{3,8-diazabicyclo[3.2.1]octan-3-yl}-7-(8-ethyl-3-hydroxynaphthalen-1-yl)-8-fluoropyrido[4,3-d]pyrimidin-2-yl)oxy]ethyl}piperidin-4-yl)oxy]azetidin-1-yl}-1,2-oxazol-5-yl)-3-methylbutanoyl]-4-hydroxy-N-[(1S)-1-[4-(4-methyl-1,3-thiazol-5-yl)phenyl]ethyl]pyrrolidine-2-carboxamide] was tested, and the Dmax was 20 to 60% and the DC50 was 1 to 3 µM.

For `CCc1cccc2cc(O)cc(-c3ncc4c(N5CC6CCC(C5)N6)nc(OC[C@]56CCCN5[C@H](COC(=O)N5CCN(c7cc([C@@H](C(=O)N8C[C@H](O)C[C@H]8C(=O)N[C@@H](C)c8ccc(-c9scnc9C)cc8)C(C)C)on7)C[C@@H]5C)CC6)nc4c3F)c12` [Compound 133, [(3S,7aR)-7a-{[(4-{3,8-diazabicyclo[3.2.1]octan-3-yl}-7-(8-ethyl-3-hydroxynaphthalen-1-yl)-8-fluoropyrido[4,3-d]pyrimidin-2-yl)oxy]methyl}-hexahydro-1H-pyrrolizin-3-yl]methyl (2S)-4-{5-[(2S)-1-[(2S,4R)-4-hydroxy-2-{[(1S)-1-[4-(4-methyl-1,3-thiazol-5-yl)phenyl]ethyl]carbamoyl}pyrrolidin-1-yl]-3-methyl-1-oxobutan-2-yl]-1,2-oxazol-3-yl}-2-methylpiperazine-1-carboxylate], the Dmax was less than 20% and the DC50 was less than 0.6 µM.

`C#Cc1c(F)ccc2cc(O)cc(-c3ncc4c(N5CC6CCC(C5)N6)nc(OCCN5CCC(F)(CN6CCN(c7cc([C@H](C(=O)N8C[C@H](O)C[C@H]8C(=O)N[C@@H](C)c8ccc(-c9ccnn9C)cc8)C(C)C)on7)CC6)CC5)nc4c3F)c12` [Compound 198, (2S,4R)-1-[(2R)-2-(3-{4-[(1-{2-[(4-{3,8-diazabicyclo[3.2.1]octan-3-yl}-7-(8-ethynyl-7-fluoro-3-hydroxynaphthalen-1-yl)-8-fluoropyrido[4,3-d]pyrimidin-2-yl)oxy]ethyl}-4-fluoropiperidin-4-yl)methyl]piperazin-1-yl}-1,2-oxazol-5-yl)-3-methylbutanoyl]-4-hydroxy-N-[(1S)-1-[4-(1-methyl-1H-pyrazol-5-yl)phenyl]ethyl]pyrrolidine-2-carboxamide] was tested, and the Dmax was 80 to 100% and the DC50 was less than 0.6 µM.

With `CCc1cccc2cc(O)cc(-c3ncc4c(N5CC6CCC(C5)N6)nc(OCCN5CCC(F)(CN6CCN(c7cnc(C(=O)N[C@H](C(=O)N8C[C@H](O)C[C@H]8C(=O)N[C@@H](C)c8ccc(-c9scnc9C)cc8)C(C)(C)C)cn7)CC6)CC5)nc4c3F)c12` [Compound 155, 5-{4-[(1-{2-[(4-{3,8-diazabicyclo[3.2.1]octan-3-yl}-7-(8-ethyl-3-hydroxynaphthalen-1-yl)-8-fluoropyrido[4,3-d]pyrimidin-2-yl)oxy]ethyl}-4-fluoropiperidin-4-yl)methyl]piperazin-1-yl}-N-[(2S)-1-[(2S,4R)-4-hydroxy-2-{[(1S)-1-[4-(4-methyl-1,3-thiazol-5-yl)phenyl]ethyl]carbamoyl}pyrrolidin-1-yl]-3,3-dimethyl-1-oxobutan-2-yl]pyrazine-2-carboxamide] the Dmax was 60 to 80% and the DC50 was less than 0.6 µM.

Compound `CCc1cccc2cc(O)cc(-c3ncc4c(N5CC6CCC(C5)N6)nc(OCCN5CC[C@@H]6CN(c7cc([C@@H](C(=O)N8C[C@H](O)C[C@H]8C(=O)N[C@@H](C)c8ccc(-c9scnc9C)cc8)C(C)C)on7)C[C@@H]6C5)nc4c3F)c12` (relative stereo) [Compound 72, (2S,4R)-1-[(2R*)-2-{3-[(3aR**,7aR***)-5-{2-[(4-{3,8-diazabicyclo[3.2.1]octan-3-yl}-7-(8-ethyl-3-hydroxynaphthalen-1-yl)-8-fluoropyrido[4,3-d]pyrimidin-2-yl)oxy]ethyl}-octahydro-1H-pyrrolo[3,4-c]pyridin-2-yl]-1,2-oxazol-5-yl}-3-methylbutanoyl]-4-hydroxy-N-[(1S)-1-[4-(4-methyl-1,3-thiazol-5-yl)phenyl]ethyl]pyrrolidine-2-carboxamide] has a Dmax of less than 20% and a DC50 greater than 3 µM.

`CCc1cccc2cc(O)cc(-c3ncc4c(N5CC6CCC(C5)N6)nc(OCCN5CC[C@H]6[C@H](CCN6c6cc([C@@H](C(=O)N7C[C@H](O)C[C@H]7C(=O)N[C@@H](C)c7ccc(-c8scnc8C)cc7)C(C)C)on6)C5)nc4c3F)c12` (relative stereo) [Compound 75, (2S,4R)-1-[(2R*)-2-{3-[(3aR**,7aR***)-5-{2-[(4-{3,8-diazabicyclo[3.2.1]octan-3-yl}-7-(8-ethyl-3-hydroxynaphthalen-1-yl)-8-fluoropyrido[4,3-d]pyrimidin-2-yl)oxy]ethyl}-octahydro-1H-pyrrolo[3,2-c]pyridin-1-yl]-1,2-oxazol-5-yl}-3-methylbutanoyl]-4-hydroxy-N-[(1S)-1-[4-(4-methyl-1,3-thiazol-5-yl)phenyl]ethyl]pyrrolidine-2-carboxamide] was tested, and the Dmax was 60 to 80% and the DC50 was 1 to 3 µM.

With `CCc1cccc2cc(O)cc(-c3ncc4c(N5CC6CCC(C5)N6)nc(OCCN5CCC(F)(CC6CCN(c7cc([C@@H](C(=O)N8C[C@H](O)C[C@H]8C(=O)N[C@@H](C)c8ccc(-c9scnc9C)cc8)C(C)C)on7)CC6)CC5)nc4c3F)c12` [Compound 240] the DC50 was greater than 3 µM.

`CCc1cccc2cc(O)cc(-c3ncc4c(N5CC6CCC(C5)N6)nc(OC[C@]56CCCN5[C@H](COC(=O)N5CCN(c7cc([C@H](C(=O)N8C[C@H](O)C[C@H]8C(=O)N[C@@H](C)c8ccc(-c9scnc9C)cc8)C(C)C)on7)C[C@@H]5C)CC6)nc4c3F)c12` [Compound 132, [(3S,7aR)-7a-{[(4-{3,8-diazabicyclo[3.2.1]octan-3-yl}-7-(8-ethyl-3-hydroxynaphthalen-1-yl)-8-fluoropyrido[4,3-d]pyrimidin-2-yl)oxy]methyl}-hexahydro-1H-pyrrolizin-3-yl]methyl (2S)-4-{5-[(2R)-1-[(2S,4R)-4-hydroxy-2-{[(1S)-1-[4-(4-methyl-1,3-thiazol-5-yl)phenyl]ethyl]carbamoyl}pyrrolidin-1-yl]-3-methyl-1-oxobutan-2-yl]-1,2-oxazol-3-yl}-2-methylpiperazine-1-carboxylate] gave a Dmax of 80 to 100% and a DC50 of less than 0.6 µM.

`CCc1cccc2cc(O)cc(-c3ncc4c(N5CC6CCC(C5)N6)nc(OCCN5C[C@@H]6CN(c7cc([C@H](C(=O)N8C[C@H](O)C[C@H]8C(=O)N[C@@H](C)c8ccc(-c9scnc9C)cc8)C(C)C)on7)C[C@H]6C5)nc4c3F)c12` (relative stereo) [Compound 77, (2S,4R)-1-[(2R*)-2-{3-[(3aR,6aR)-5-{2-[(4-{3,8-diazabicyclo[3.2.1]octan-3-yl}-7-(8-ethyl-3-hydroxynaphthalen-1-yl)-8-fluoropyrido[4,3-d]pyrimidin-2-yl)oxy]ethyl}-octahydropyrrolo[3,4-c]pyrrol-2-yl]-1,2-oxazol-5-yl}-3-methylbutanoyl]-4-hydroxy-N-[(1S)-1-[4-(4-methyl-1,3-thiazol-5-yl)phenyl]ethyl]pyrrolidine-2-carboxamide] showed a Dmax of 80 to 100% and a DC50 of less than 0.6 µM.
